In ChEMBL document CHEMBL1126424, “Preparation of the enantiomers of the novel CA-sensitizer EMD 53 998” (Bioorg Med Chem Lett, 1992):

Experiments:
Cavia porcellus = species: Cavia porcellus; assay: Increasing force in skinned fibers at constant buffered Ca-concentration; assay type: functional
Phosphodiesterase 3 = Phosphodiesterase 3 (Homo sapiens, UniProt Q14432+Q13370); assay: Inhibition of guinea pig heart Phosphodiesterase 3; assay type: protein assay, Cavia porcellus; conditions: target entry is the homologue from another species

| SMILES | EC50 (Cavia porcellus) [µM] | IC50 (Phosphodiesterase 3) [µM] |
| --- | --- | --- |
| COc1ccc(C(=O)N2CCCc3cc(C4=NNC(=O)SC4C)ccc32)cc1OC (stereo in doubt; form 2) | > 100 | 0.05 |
| COc1ccc(C(=O)N2CCCc3cc(C4=NNC(=O)SC4C)ccc32)cc1OC (stereo in doubt; form 1) | 4.8 | 0.06 |
| COc1ccc(C(=O)N2CCCc3cc(C4=NNC(=O)SC4C)ccc32)cc1OC (stereo in doubt; form 3) | 1.7 | 1.94 |
